Like-named read-outs stand apart in the source and are kept apart here. One block for each molecule: values may come before it.
What was measured:
nasal epithelia = test: In vivo nasal transepithelial voltage (Vt) in newborn piglets; design: species or system pig; conditions: sequential perfusion, amiloride 100 μM, ATP 100 μM, GlyH-101 100 μM
Procedure: The transepithelial voltage (Vt) across the nasal epithelium was measured using previously described methods (Zabner et al., J. Clin. Invest. 97:1504, 1996; Standaert et al., Pediatr. Pulmonol. 37:385, 2004) under propofol anesthesia with the animal spontaneously breathing. The reference electrode was a small Ringer's solution-filled catheter inserted into the leg muscle (25 g needle). The exploring electrode was a 6 french foley catheter filled with Ringer's solution (148 mM NaCl, 2.4 mM KH2PO4, 0.4 mM K2PO4, 2.25 mM CaCl2, 1.2 mM MgCl2) inserted 4 cm into the nasal cavity, and the nasal mucosa was perfused at a rate of 5 ml/min using Ringer's solution to obtain baseline Vt. Subsequent perfusion solutions included: Ringer's solution containing 100 μM amiloride; Cl^−-free Ringer's solution containing gluconate substituted for CF plus amiloride; Cl^−-free Ringer's solution containing amiloride plus 10 μM isoproterenol; Cl^−-free Ringer's solution containing amiloride, isoproterenol, plus 100 μM ATP; Cl^−-free Ringer's solution containing amiloride, isoproterenol, ATP, plus 100 μM GlyH-101. Voltage was measured with a voltmeter connected to a strip chart recorder. Each solution was perfused for 3-5 minutes. Following completion of the measurements, the epithelium was disrupted by brushing and Vt measured again to determine the zero value of Vt.

[1] = tested on: excised trachea epithelia; test: Electrophysiology of freshly excised tracheal epithelia in Ussing chambers; type: cell-based, pig; conditions: 100 μM apical
Text: Values of transepithelial electrical conductance (Gt) were large, probably because of “edge damage” associated with clamping epithelia in Ussing chambers (Helman et al., Am. J. Physiol. Cell Physiol. 225(4):972-977, 1973) (compare with cultured epithelia in FIG. 31, 32).
(§1) Epithelial tissues were excised from the nasal turbinate and septum, and from trachea through 2nd generation bronchi immediately after animals were euthanized. Tissues and cultured epithelia were studied in modified Ussing chambers. Epithelia were bathed on both surfaces with solution containing (mM): 135 NaCl, 2.4 K2HPO4, 0.6 KH2PO4, 1.2 CaCl2, 1.2 MgCl2, 10 dextrose, 5 HEPES, pH 7.4, at 37° C. and gassed with compressed air. Na-gluconate was substituted for NaCl in […] solutions. Transepithelial voltage (Vt) was maintained at 0 mV to measure short-circuit current (Isc). Transepithelial electrical conductance (Gt) was measured by intermittently clamping Vt to +5 and/or −5 mV.
A standard protocol was the following. 1) Measurements under basal conditions. 2) 100 μM apical amiloride to inhibit ENaC Na^+ channels. 3) 100 μM apical DIDS (4,4-diisothiocyano stilbene-2,2-disulfonic acid) to inhibit most anion channels other than CFTR. 4) 10 μM forskolin and 100 μM IBMX ([…]) to increase cellular levels of cAMP leading to phosphorylation and activation of CFTR. […]

CFTR^+/+ epithelia = test: Short-circuit current (Isc) response to increasing cAMP agonist concentrations, Ussing chambers, wild-type epithelia; type: cell-based, pig
Text: (§2) These studies were done under conditions of maximal CFTR stimulation. Therefore, we also examined the response to increasing concentrations of forskolin and IBMX (at a fixed ratio of forskolin:IBMX of 1:10) (FIG. 33F,G). The EC50 for CFTR^+/+ epithelia was […]. In contrast, the EC50 for forskolin in CFTR^ΔF508/ΔF508 epithelia was 0.60±0.19
(§3) Because forskolin and IBMX might generate different cellular cAMP concentrations in CFTR^ΔF508/ΔF508 and CFTR^+/+ epithelia, we repeated the experiments with 8-CPT-cAMP, a membrane-permeable cAMP analog (FIG. 33H,I).
as §1
(§4) A standard protocol was the following. 1) Measurements under basal conditions. 2) 100 μM apical amiloride to inhibit ENaC Na^+ channels. […]

[2] = tested on: CFTR^ΔF508/ΔF508 epithelia; test: Short-circuit current (Isc) response to increasing cAMP agonist concentrations, Ussing chambers, ΔF508 epithelia; type: cell-based, pig
Text: as §2, §3, §1, §4

Structure (SMILES): N=C(N)NC(=O)c1nc(Cl)c(N)nc1N [Amiloride, amiloride]
Effect on nasal transepithelial voltage (Vt) (nasal epithelia): reduced Vt in all genotypes | Effect on transepithelial conductance Gt (ΔGtamiloride) ([1]; CFTR^ΔF508/ΔF508 vs CFTR^+/+): reduced Gt (ΔGtamiloride) to a similar extent | Effect on Vt and Isc (ΔVtamiloride, ΔIscamiloride) ([1]; CFTR^ΔF508/ΔF508 vs wild-type): reduced Vt (ΔVtamiloride) and Isc (ΔIscamiloride) in CFTR^ΔF508/ΔF508 more than in wild-type epithelia

Structure (SMILES): Nc1ncnc2c1ncn2[C@@H]1O[C@H](COP(=O)(O)OP(=O)(O)OP(=O)(O)O)[C@@H](O)[C@H]1O [ATP]
Effect on nasal transepithelial voltage (Vt) (nasal epithelia): further hyperpolarized Vt

EC50 (CFTR^+/+ epithelia; Sus scrofa, CFTR^+/+ epithelia, increasing forskolin and IBMX at fixed ratio forskolin:IBMX 1:10, read-out: EC50 for forskolin (change in Isc)): 0.07 ± 0.01 µM | EC50 ([2]; Sus scrofa, increasing forskolin and IBMX at fixed ratio forskolin:IBMX 1:10, read-out: EC50 for forskolin (change in Isc)): 0.6 ± 0.19 µM
Structure (SMILES): C=C[C@@]1(C)CC(=O)[C@]2(O)[C@@]3(C)[C@@H](O)CCC(C)(C)[C@@H]3[C@H](O)[C@H](OC(C)=O)[C@@]2(C)O1 [forskolin]

EC50 (CFTR^+/+ epithelia; wild-type epithelia, read-out: EC50 (change in Isc with increasing 8-CPT-cAMP)): 8 ± 1.3 µM | EC50 ([2]; read-out: EC50 (change in Isc with increasing 8-CPT-cAMP)): 65.2 ± 17.3 µM
Structure (SMILES): Nc1ncnc2c1nc(Sc1ccc(Cl)cc1)n2[C@@H]1O[C@@H]2COP(=O)(O)O[C@H]2[C@H]1O [8-CPT-cAMP]

Structure (SMILES): O=C(CNc1ccc2ccccc2c1)N/N=C/c1cc(Br)c(O)c(Br)c1O [GlyH-101]
Effect on nasal transepithelial voltage (Vt) (nasal epithelia): depolarized Vt in controls, but not CFTR−/− piglets

From US8912386B2, “Transgenic pig model of cystic fibrosis” (University of Iowa Research Foundation, priority 2007, dated 2014)
